The test system of series [1] is Yersinia pseudotuberculosis ATCC 911. The experiment in a line: microbe, parasite or virus in culture. To be noted: ATCC911, pH 7.3, read-out: minimal inhibition concentration, Yp. It counts as cell-based.
The next series has as its system Bacillus cereus 702 Roma. The experiment in a line: Antimicrobial activity, broth double microdilution MIC. In kind it is cell-based. Particulars: pH 7.3, read-out: minimal inhibition concentration, Bc. On the technique in general: In broth dilution the organism is exposed to a series of concentrations in liquid medium.
Series [2] deals with Staphylococcus aureus ATCC 25923. The series is described as above. It counts as cell-based. To be noted: ATCC25923, Mueller–Hinton broth pH 7.3, 18–24 h at 35 °C, – = no activity, read-out: minimal inhibition concentration, Sa.
Series [3] relates to Escherichia coli ATCC 25922. Described as above. In kind it is cell-based. Particulars: ATCC25922, pH 7.3, read-out: minimal inhibition concentration, Ec.
For series [4], the system named is Enterococcus faecalis ATCC 29212. Described as above. It counts as cell-based. To be noted: ATCC29212, Mueller–Hinton broth pH 7.3, 18–24 h at 35 °C, – = no activity, read-out: minimal inhibition concentration, Ef.
For series [5], the system named is Pseudomonas aeruginosa ATCC 43288. The series is described as above. In kind it is cell-based. To be noted: ATCC43288, Mueller–Hinton broth pH 7.3, 18–24 h at 35 °C, – = no activity, read-out: minimal inhibition concentration, Pa.
The test system of a further series is S. cerevisiae RSKK 251. Description: Antifungal activity, broth double microdilution MIC. In kind it is cell-based. Particulars: Saccharomyces cerevisiae.
For series [6], the system named is Mycobacterium smegmatis ATCC 607. Description: Antimicrobial activity, broth double microdilution MIC. It counts as cell-based. To be noted: Mycolicibacterium smegmatis.
Another series has as its target urease (Canavalia ensiformis, UniProt P07374). Description: Urease inhibitory activity (Van Slyke and Archibald).
The subject of series [7] is Candida albicans ATCC 60193. The experiment in a line: Antifungal activity, broth double microdilution MIC. It counts as cell-based.
The next series concerns all the microorganisms. The experiment in a line: Antimicrobial activity in vitro, whole panel. In kind it is cell-based. Particulars: result in words.
Where [8] appears, read: RSKK251, pH 7, read-out: minimal inhibition concentration, Sc.
[9] abbreviates: ATCC607, read-out: minimal inhibition concentration, Ms.
The mark [10] stands for this setting: Candida albicans, ATCC60193, pH 7, read-out: minimal inhibition concentration, Ca.

Converted amounts (≈) assume the structure as drawn. Where two headings read alike, the source gives them in different places.

As a reminder, the melting point is the temperature of the solid-liquid transition. As usually defined, the IC50 is the concentration that gives 50% inhibition. Higher therefore signals weaker potency.

urease, sequence (P07374 whole entry, looked up): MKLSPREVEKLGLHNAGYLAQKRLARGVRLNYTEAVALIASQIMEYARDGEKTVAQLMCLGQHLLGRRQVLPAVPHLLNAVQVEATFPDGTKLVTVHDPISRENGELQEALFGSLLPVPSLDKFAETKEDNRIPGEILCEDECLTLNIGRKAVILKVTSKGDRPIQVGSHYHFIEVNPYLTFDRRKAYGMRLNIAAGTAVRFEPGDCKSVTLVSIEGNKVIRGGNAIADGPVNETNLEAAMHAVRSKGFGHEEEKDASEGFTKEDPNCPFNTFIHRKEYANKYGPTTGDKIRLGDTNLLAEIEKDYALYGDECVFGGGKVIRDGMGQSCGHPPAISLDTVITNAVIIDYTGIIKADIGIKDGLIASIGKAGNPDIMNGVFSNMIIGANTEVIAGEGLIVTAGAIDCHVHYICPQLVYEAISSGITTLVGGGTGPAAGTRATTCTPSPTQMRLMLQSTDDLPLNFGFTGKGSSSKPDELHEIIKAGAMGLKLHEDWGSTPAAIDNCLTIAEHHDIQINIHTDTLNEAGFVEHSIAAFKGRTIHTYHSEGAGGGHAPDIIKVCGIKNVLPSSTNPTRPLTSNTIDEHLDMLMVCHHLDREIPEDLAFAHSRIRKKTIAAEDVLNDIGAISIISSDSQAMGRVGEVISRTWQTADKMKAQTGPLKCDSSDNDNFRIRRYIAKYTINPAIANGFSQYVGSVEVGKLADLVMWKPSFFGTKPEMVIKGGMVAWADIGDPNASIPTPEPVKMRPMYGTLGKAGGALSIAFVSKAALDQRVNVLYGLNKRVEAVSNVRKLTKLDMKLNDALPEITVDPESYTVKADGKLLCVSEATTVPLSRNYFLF

Take `CC1(C)S[C@@H]2[C@H](NC(=O)[C@H](N)c3ccccc3)C(=O)N2[C@H]1C(=O)O` [Amp., Ampicillin, reference compound]: the MIC is 32 µg/mL (≈ 91.6 µM) in series [1]; below 1 µg/mL in the series with Bacillus cereus 702 Roma; 2 µg/mL (≈ 5.72 µM) in series [2]; 8 µg/mL (≈ 22.9 µM) in series [3]; 2 µg/mL (≈ 5.72 µM) in [4]; above 128 µg/mL in series [5].

`CCOC(=O)CNc1ccc(N2CCOCC2)nc1` [Compound 3, Ethyl N-(6-morpholin-4-ylpyridin-3-yl)glycinate] returned a melting point of 83 to 84 °C. The MIC in the series on S. cerevisiae RSKK 251 (setting [8]) is 1000 µg/mL (≈ 3770 µM). Moreover, the MIC in series [6] (setting [9]) came out at 125 µg/mL (≈ 471 µM). Besides, the IC50 against urease was 13.2 ± 2.25 µM. Besides, the MIC in [7] (setting [10]) is 1000 µg/mL (≈ 3770 µM).

For the compound `NNC(=O)CNc1ccc(N2CCOCC2)nc1` [Compound 4, 2-[6-(Morpholin-4-yl)pyridin-3-ylamino]acetohydrazide], the melting point fell in the range of 175 to 177 °C. Moreover, the MIC in the series with S. cerevisiae RSKK 251 (setting [8]) amounted to 1000 µg/mL (≈ 3980 µM). Moreover, the MIC in series [6] (setting [9]) is 125 µg/mL (≈ 497 µM). At urease, this compound came in with an IC50 of 7.92 ± 1.43 µM. Further, in series [7] (setting [10]), the MIC was found to be 500 µg/mL (≈ 1990 µM).

In turn, `O=C(CNc1ccc(N2CCOCC2)nc1)N/N=C/c1ccc(Br)cc1` [Compound 5, N-(4-Bromobenzylidene)-2-[6-(morpholin-4-yl)pyridin-3-ylamino]acetohydrazide] had a melting point of 163 to 164 °C. Moreover, in the series on S. cerevisiae RSKK 251 (setting [8]), the MIC was 1000 µg/mL (≈ 2390 µM). The MIC in series [6] (setting [9]) came to 31.3 µg/mL (≈ 74.8 µM). The IC50 on urease came out at 6.87 ± 0.06 µM. Besides, in series [7] (setting [10]), the MIC stood at 1000 µg/mL (≈ 2390 µM).

Take `O=C(CNc1ccc(N2CCOCC2)nc1)N/N=C/C=C/c1ccccc1` [Compound 6, 2-{[6-(Morpholin-4-yl)pyridin-3-yl]amino}-N-(3-phenylallylidene)acetohydrazide]: the melting point was in the range of 194 to 195 °C. In addition, the MIC with S. cerevisiae RSKK 251 (setting [8]) turned out to be 1000 µg/mL (≈ 2740 µM). This compound displayed an IC50 against urease of 8.29 ± 2.3 µM. Also, the MIC in [7] (setting [10]) is 500 µg/mL (≈ 1370 µM).

Regarding `Sc1nnc(CNc2ccc(N3CCOCC3)nc2)o1` [Compound 7, 5-{[(6-Morpholin-4-ylpyridin-3-yl)amino]methyl}-1,3,4-oxadiazole-2-thiol], the melting point was in the range of 221 to 222 °C. Moreover, in the series with S. cerevisiae RSKK 251 (setting [8]), the MIC stood at 1000 µg/mL (≈ 3410 µM). In addition, on urease, the IC50 came out at 7.01 ± 0.68 µM. For the same compound, the MIC in [7] (setting [10]) is 500 µg/mL (≈ 1700 µM).

`S=c1oc(CNc2ccc(N3CCOCC3)nc2)nn1CN1CCN(c2ccccc2)CC1` [Compound 8, 5-{[(6-Morpholin-4-ylpyridin-3-yl)amino]methyl}-3-[(4-phenylpiperazin-1-yl)methyl]-1,3,4-oxadiazole-2(3H)-thione] registered a melting point of 87 to 88 °C. In addition, the MIC in [1] turned out to be 62.5 µg/mL (≈ 134 µM). The MIC in the series on Bacillus cereus 702 Roma is 62.5 µg/mL (≈ 134 µM). Moreover, the MIC in [2] amounted to 31.3 µg/mL (≈ 66.9 µM). Further, the MIC in series [3] was found to be 62.5 µg/mL (≈ 134 µM). Further, in the series with S. cerevisiae RSKK 251 (setting [8]), the MIC is 1000 µg/mL (≈ 2140 µM). Further, the MIC in series [6] (setting [9]) was 125 µg/mL (≈ 267 µM). In addition, the MIC in series [4] turned out to be 31.3 µg/mL (≈ 66.9 µM). In series [5], the MIC was 62.5 µg/mL (≈ 134 µM). In addition, 4.99 ± 0.59 µM corresponded to half-maximal inhibition against urease (IC50). Also, in the series with all the microorganisms, the “antimicrobial activity against all the microorganisms” value is recorded as “active against all the microorganisms”. Moreover, the MIC in series [7] (setting [10]) came to 1000 µg/mL (≈ 2140 µM).

Regarding `O=C(CNc1ccc(N2CCOCC2)nc1)NNC(=S)Nc1ccccc1` [Compound 9, 2-{[(6-Morpholin-4-ylpyridin-3-yl)amino]acetyl}-N-phenylhydrazinecarbothioamide], the melting point lay in the range of 171 to 172 °C. Also, the MIC with S. cerevisiae RSKK 251 (setting [8]) was 1000 µg/mL (≈ 2590 µM). For the same compound, the MIC in series [6] (setting [9]) was 125 µg/mL (≈ 323 µM). Also, the IC50 against urease came to 8.07 ± 1.25 µM. In [7] (setting [10]), the MIC was found to be 1000 µg/mL (≈ 2590 µM).

`O=C(CNc1ccc(N2CCOCC2)nc1)N/N=c1\sc(-c2ccc(Cl)cc2)cn1-c1ccccc1` [Compound 10]: the melting point fell in the range of 168 to 169 °C. Moreover, the MIC with S. cerevisiae RSKK 251 (setting [8]) came to 1000 µg/mL (≈ 1920 µM). The compound further registered an IC50 against urease of 2.37 ± 0.19 µM. In series [7] (setting [10]), the MIC came out at 500 µg/mL (≈ 960 µM).

As for `Sc1nnc(CNc2ccc(N3CCOCC3)nc2)n1-c1ccccc1` [Compound 11], the melting point was 165 to 166 °C.

`c1ccc(Nc2nnc(CNc3ccc(N4CCOCC4)nc3)s2)cc1` [Compound 12] gave a melting point of 172 to 173 °C.

`O=C(CNc1ccc(N2CCOCC2)nc1)N/N=C1\SCC(=O)N1c1ccccc1` [Compound 13, 2-[(6-Morpholin-4-ylpyridin-3-yl)amino]-N’-(4-oxo-3-phenyl-1,3-thiazolidin-2-ylidene)acetohydrazide] came in with a melting point of 201 to 202 °C. Moreover, the MIC in the series on S. cerevisiae RSKK 251 (setting [8]) came out at 1000 µg/mL (≈ 2340 µM). At urease, this compound returned an IC50 of 4.46 ± 0.22 µM. Further, the MIC in series [7] (setting [10]) worked out at 500 µg/mL (≈ 1170 µM).

Regarding `OC(Cn1cncn1)(Cn1cncn1)c1ccc(F)cc1F` [Flu., Fluconazole, reference compound], the MIC with S. cerevisiae RSKK 251 (RSKK251, S. cerevisiae RSKK 251, buffered Yeast Nitrogen Base pH 7.0, 18–24 h at 35 °C, read-out: minimal inhibition concentration, Sc) is below 8 µg/mL; in series [7] (ATCC60193, Candida albicans ATCC 60193, buffered Yeast Nitrogen Base pH 7.0, 18–24 h at 35 °C, read-out: minimal inhibition concentration, Ca) it was below 8 µg/mL.

For `CN[C@@H]1[C@H](O[C@H]2[C@H](O[C@H]3[C@H](O)[C@@H](O)[C@H](N=C(N)N)[C@@H](O)[C@@H]3N=C(N)N)O[C@@H](C)[C@]2(O)C=O)O[C@@H](CO)[C@H](O)[C@H]1O` [Str., Streptomisin, reference compound], in [6] (ATCC607, Mycobacterium smegmatis ATCC 607, Brain Heart Infusion broth, 48–72 h at 35 °C, – = no activity, read-out: minimal inhibition concentration, Ms), the MIC turned out to be 4 µg/mL (≈ 6.88 µM).

The record behind these values is article PMC3685705, “Antimicrobial and antiurease activities of newly synthesized morpholine derivatives containing an azole nucleus” (Medicinal Chemistry Research, 2012).
